The results in this text go back to US12503475B2 (Centessa Pharmaceuticals (UK) Limited, priority 2020, dated 2025).

This test addresses T1, human orexin type 2 receptor (hOX2R) (Homo sapiens, UniProt O43614).
T1 construct: expressed in transfected cells
T1 sequence (O43614 1-444): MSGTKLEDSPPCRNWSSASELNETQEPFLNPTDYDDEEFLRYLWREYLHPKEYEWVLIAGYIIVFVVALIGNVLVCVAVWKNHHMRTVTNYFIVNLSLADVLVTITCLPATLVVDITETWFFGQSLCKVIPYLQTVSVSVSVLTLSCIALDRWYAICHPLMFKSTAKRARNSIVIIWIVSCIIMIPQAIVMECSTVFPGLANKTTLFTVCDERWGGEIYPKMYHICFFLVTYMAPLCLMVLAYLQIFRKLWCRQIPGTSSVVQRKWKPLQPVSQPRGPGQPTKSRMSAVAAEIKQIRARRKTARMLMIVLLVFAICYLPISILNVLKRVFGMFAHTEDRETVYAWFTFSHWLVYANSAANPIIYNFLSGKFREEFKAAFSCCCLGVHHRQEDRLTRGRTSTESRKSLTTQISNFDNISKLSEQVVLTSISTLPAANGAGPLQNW
Description: Measurement of orexin type 2 receptor agonist activity (FLIPR calcium fluorescence). The format is cell-based. The following applies: CHO cells expressing hOX2R, FLIPR calcium fluorescence; for EC50: read-out: hOx2 pEC50 (converted); for Emax: CHO, read-out: hOx2 Emax (%). A digest of the protocol: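 Agonism was read as fluorescence in cells stably expressing human OX2R. E. is the response at 10 μM relative to orexin A as full agonist (100%).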

`C[C@@H](F)C(=O)N1CC2(CC2)[C@H](NS(=O)(=O)CF)[C@@H]1Cc1cc(F)cc(-c2cccc(F)c2)c1F` [Compound 394]: the EC50 was 0.0794 to 1 nM and the Emax lay within 90 to 100%.

With `CC(C)S(=O)(=O)N[C@@H]1[C@H](Cc2cc(F)cc(-c3cc(F)cc(F)c3)c2F)N(C(=O)[C@H]2CCO2)CC12CC2` [Compound 395, N-((6S,7S)-5-((R)-oxetane-2-carbonyl)-6-((2,3′,5,5′-tetrafluoro-[1,1′-biphenyl]-3-yl)methyl)-5-azaspiro[2.4]heptan-7-yl)propane-2-sulfonamide], the EC50 is 0.0794 to 1 nM and the Emax lay within 90 to 100%.

As to `CC(C)S(=O)(=O)N[C@@H]1[C@H](Cc2cc(F)cc(-c3ccccc3)c2F)N(C(=O)[C@H]2CCO2)CC12CC2` [Compound 396], the EC50 is 1 to 10 nM and the maximal effect (Emax) lay in the range of 90 to 100%.

As for `[2H]C([2H])([2H])Oc1c(C[C@H]2[C@@H](NS(=O)(=O)CF)C3(CC3)CN2C(=O)NC([2H])([2H])C([2H])([2H])[2H])cccc1-c1ccccc1` [Compound 397, (6S,7S)-N-(ethyl-d5)-7-((fluoromethyl)sulfonamido)-6-((2-(methoxy-d3)-[1,1′-biphenyl]-3-yl)methyl)-5-azaspiro[2.4]heptane-5-carboxamide], the EC50 is 1 to 10 nM and the maximal effect (Emax) lay in the range of 80 to 90%.

Take `CC(C)(F)S(=O)(=O)N[C@@H]1[C@H](Cc2cccc(-c3ccccc3)c2F)N(C(=O)[C@H]2CCO2)CC12CC2` [Compound 398, 2-fluoro-N-((6S,7S)-6-((2-fluoro-[1,1′-biphenyl]-3-yl)methyl)-5-((R)-oxetane-2-carbonyl)-5-azaspiro[2.4]heptan-7-yl)propane-2-sulfonamide]: the EC50 is 1 to 10 nM and the Emax was 90 to 100%.

Regarding `COC1CN(C(=O)N2CC3(CC3)[C@H](NS(=O)(=O)CF)[C@@H]2Cc2cccc(-c3cccc(F)c3)c2F)C1` [Compound 400, N-((6S,7S)-6-((2,3′-difluoro-[1,1′-biphenyl]-3-yl)methyl)-5-(3-methoxyazetidine-1-carbonyl)-5-azaspiro[2.4]heptan-7-yl)-1-fluoromethanesulfonamide], the EC50 was 1 to 10 nM and the Emax was 90 to 100%.

Take `O=C([C@H]1CCCO1)N1CC2(CC2)[C@H](NS(=O)(=O)CF)[C@@H]1Cc1cccc(-c2ccccc2)c1F` [Compound 401, 1-fluoro-N-((6S,7S)-6-((2-fluoro-[1,1′-biphenyl]-3-yl)methyl)-5-((R)-tetrahydrofuran-2-carbonyl)-5-azaspiro[2.4]heptan-7-yl)methanesulfonamide]: the EC50 was 1 to 10 nM and the maximal effect (Emax) was 90 to 100%.

On to `COC1CN(C(=O)N2CC3(CC3)[C@H](NS(=O)(=O)CF)[C@@H]2Cc2cccc(-c3cc(F)cc(F)c3)c2F)C1` [Compound 402, 1-fluoro-N-((6S,7S)-5-(3-methoxyazetidine-1-carbonyl)-6-((2,3′,5′-trifluoro-[1,1′-biphenyl]-3-yl)methyl)-5-azaspiro[2.4]heptan-7-yl)methanesulfonamide], for which the EC50 was 1 to 10 nM and the Emax lay within 90 to 100%.

In the case of `N#CC1(C(=O)N2CC3(CC3)[C@H](NS(=O)(=O)C(F)F)[C@@H]2Cc2cccc(-c3ccccc3)c2F)CCC1` [Compound 403], the EC50 is 1 to 10 nM and the Emax is 90 to 100%.

For `COC1(C(=O)N2CC3(CC3)[C@H](NS(=O)(=O)CF)[C@@H]2Cc2cc(F)cc(-c3ccccc3)c2F)CC1` [Compound 404, N-((6S,7S)-6-((2,5-difluoro-[1,1′-biphenyl]-3-yl)methyl)-5-(1-methoxycyclopropane-1-carbonyl)-5-azaspiro[2.4]heptan-7-yl)-1-fluoromethanesulfonamide], the EC50 is 1 to 10 nM and the Emax fell in the range of 90 to 100%.

Take `O=C([C@H]1CCO1)N1CC2(CC2)[C@H](NS(=O)(=O)C2CC2)[C@@H]1Cc1cc(F)cc(-c2cc(F)cc(F)c2)c1F` [Compound 405, N-((6S,7S)-5-((R)-oxetane-2-carbonyl)-6-((2,3′,5,5′-tetrafluoro-[1,1′-biphenyl]-3-yl)methyl)-5-azaspiro[2.4]heptan-7-yl)cyclopropanesulfonamide]: the EC50 is 1 to 10 nM and the Emax fell in the range of 90 to 100%.

Turning to `C[C@@H](F)C(=O)N1CC2(CC2)[C@H](NS(=O)(=O)C(F)F)[C@@H]1Cc1cc(F)cc(-c2cc(F)cc(F)c2)c1F` [Compound 406, 1,1-difluoro-N-((6S,7S)-5-((R)-2-fluoropropanoyl)-6-((2,3′,5,5′-tetrafluoro-[1,1′-biphenyl]-3-yl)methyl)-5-azaspiro[2.4]heptan-7-yl)methanesulfonamide], the EC50 is 0.0794 to 1 nM and the maximal response (Emax) fell in the range of 90 to 100%.

`CCS(=O)(=O)N[C@@H]1[C@H](Cc2cc(F)cc(-c3cc(F)cc(F)c3)c2F)N(C(=O)[C@H]2CCO2)CC12CC2` [Compound 407, N-((6S,7S)-5-((R)-oxetane-2-carbonyl)-6-((2,3′,5,5′-tetrafluoro-[1,1′-biphenyl]-3-yl)methyl)-5-azaspiro[2.4]heptan-7-yl)ethanesulfonamide]: the EC50 is 1 to 10 nM and the maximal effect (Emax) fell in the range of 90 to 100%.

With `N#C[C@]1(C(=O)N2CC3(CC3)[C@H](NS(=O)(=O)C(F)F)[C@@H]2Cc2cccc(-c3ccccc3)c2F)CCO1` [Compound 408, N-((6S,7S)-5-((S)-2-cyanooxetane-2-carbonyl)-6-((2-fluoro-[1,1′-biphenyl]-3-yl)methyl)-5-azaspiro[2.4]heptan-7-yl)-1,1-difluoromethanesulfonamide], the EC50 was 1 to 10 nM and the Emax fell in the range of 90 to 100%.

Consider `CC(F)(F)CNC(=O)N1CC2(CC2)[C@H](NS(=O)(=O)CF)[C@@H]1Cc1cccc(-c2ccccc2)c1F` [Compound 409], for which the EC50 was 1 to 10 nM and the Emax fell in the range of 90 to 100%.

With `CC(C)(F)CNC(=O)N1CC2(CC2)[C@H](NS(=O)(=O)CF)[C@@H]1Cc1cccc(-c2ccccc2)c1F` [Compound 410, (6S,7S)-N-(2-fluoro-2-methylpropyl)-6-((2-fluoro-[1,1′-biphenyl]-3-yl)methyl)-7-((fluoromethyl)sulfonamido)-5-azaspiro[2.4]heptane-5-carboxamide], the EC50 was 1 to 10 nM and the maximum response (Emax) lay within 90 to 100%.

`O=C(NCC(F)F)N1CC2(CC2)[C@H](NS(=O)(=O)CF)[C@@H]1Cc1cccc(-c2cc(F)cc(F)c2)c1F` [Compound 411]: the EC50 was 0.0794 to 1 nM and the Emax fell in the range of 90 to 100%.

As for `O=C(NCC1(F)CC1)N1CC2(CC2)[C@H](NS(=O)(=O)CF)[C@@H]1Cc1cccc(-c2cc(F)cc(F)c2)c1F` [Compound 412, (6S,7S)-N-((1-fluorocyclopropyl)methyl)-7-((fluoromethyl)sulfonamido)-6-((2,3′,5′-trifluoro-[1,1′-biphenyl]-3-yl)methyl)-5-azaspiro[2.4]heptane-5-carboxamide], the EC50 is 1 to 10 nM and the Emax was in the range of 90 to 100%.

Take `N#CC1(C(=O)N2CC3(CC3)[C@H](NS(=O)(=O)CF)[C@@H]2Cc2cc(F)cc(-c3ccccc3)c2F)CCC1` [Compound 413, N-((6S,7S)-5-(1-cyanocyclobutane-1-carbonyl)-6-((2,5-difluoro-[1,1′-biphenyl]-3-yl)methyl)-5-azaspiro[2.4]heptan-7-yl)-1-fluoromethanesulfonamide]: the EC50 is 0.0794 to 1 nM and the maximal effect (Emax) was in the range of 90 to 100%.

On to `C[C@@H](F)C(=O)N1CC2(CC2)[C@H](NS(=O)(=O)CF)[C@@H]1Cc1cc(F)cc(-c2cc(F)cc(F)c2)c1F` [Compound 414, 1-fluoro-N-((6S,7S)-5-((R)-2-fluoropropanoyl)-6-((2,3′,5,5′-tetrafluoro-[1,1′-biphenyl]-3-yl)methyl)-5-azaspiro[2.4]heptan-7-yl)methanesulfonamide], for which the EC50 is 0.0794 to 1 nM and the maximal response (Emax) was 90 to 100%.

Take `O=C(NCC1(F)CC1)N1CC2(CC2)[C@H](NS(=O)(=O)CF)[C@@H]1Cc1cc(F)cc(-c2cc(F)cc(F)c2)c1F` [Compound 415, (6S,7S)-N-((1-fluorocyclopropyl)methyl)-7-((fluoromethyl)sulfonamido)-6-((2,3′,5,5′-tetrafluoro-[1,1′-biphenyl]-3-yl)methyl)-5-azaspiro[2.4]heptane-5-carboxamide]: the EC50 was 1 to 10 nM and the maximum response (Emax) was 90 to 100%.

In the case of `O=C(NCC1(F)CC1)N1CC2(CC2)[C@H](NS(=O)(=O)C(F)F)[C@@H]1Cc1cc(F)cc(-c2cc(F)cc(F)c2)c1F` [Compound 416, (6S,7S)-7-((difluoromethyl)sulfonamido)-N-((1-fluorocyclopropyl)methyl)-6-((2,3′,5,5′-tetrafluoro-[1,1′-biphenyl]-3-yl)methyl)-5-azaspiro[2.4]heptane-5-carboxamide], the EC50 is 1 to 10 nM and the maximal response (Emax) was in the range of 90 to 100%.

Regarding `O=C(NCC1(F)CC1)N1CC2(CC2)[C@H](NS(=O)(=O)C(F)F)[C@@H]1Cc1cc(F)cc(-c2ccccc2)c1F` [Compound 417, (6S,7S)-6-(2,5-difluoro-[1,1′-biphenyl]-3-yl)methyl)-7-((difluoromethyl)sulfonamido)-N-((1-fluorocyclopropylmethyl)-5-azaspiro[2.4]heptane-5-carboxamide], the EC50 was 1 to 10 nM and the Emax lay in the range of 90 to 100%.

For `C[C@@H](F)C(=O)N1CC2(CC2)[C@H](NS(=O)(=O)CF)[C@@H]1Cc1cc(F)cc(-c2ccccc2)c1F` [Compound 418], the EC50 was 1 to 10 nM and the maximum response (Emax) lay within 90 to 100%.

Broadly, the Emax is the greatest response seen or fitted, relative to the assay's reference.
